Reference: publication PMC5607274, “An iterative compound screening contest method for identifying target protein inhibitors using the tyrosine-protein kinase Yes” (Scientific Reports, 2017)

biological target: T1, human recombinant Yes [a.a. 2–543 (end)] (Homo sapiens, UniProt P07947); assay: ADP-Glo kinase assay, inhibition rates of Yes phosphorylation activity (first and second screening); format: biochemical; settings: first screening; mean of n = 4 wells; 10 μmol L−1 compound
T1 construct: human recombinant Yes [a.a; 2–543 (end)]; purchased BPS Bioscience 40488
T1 sequence (P07947 2-543): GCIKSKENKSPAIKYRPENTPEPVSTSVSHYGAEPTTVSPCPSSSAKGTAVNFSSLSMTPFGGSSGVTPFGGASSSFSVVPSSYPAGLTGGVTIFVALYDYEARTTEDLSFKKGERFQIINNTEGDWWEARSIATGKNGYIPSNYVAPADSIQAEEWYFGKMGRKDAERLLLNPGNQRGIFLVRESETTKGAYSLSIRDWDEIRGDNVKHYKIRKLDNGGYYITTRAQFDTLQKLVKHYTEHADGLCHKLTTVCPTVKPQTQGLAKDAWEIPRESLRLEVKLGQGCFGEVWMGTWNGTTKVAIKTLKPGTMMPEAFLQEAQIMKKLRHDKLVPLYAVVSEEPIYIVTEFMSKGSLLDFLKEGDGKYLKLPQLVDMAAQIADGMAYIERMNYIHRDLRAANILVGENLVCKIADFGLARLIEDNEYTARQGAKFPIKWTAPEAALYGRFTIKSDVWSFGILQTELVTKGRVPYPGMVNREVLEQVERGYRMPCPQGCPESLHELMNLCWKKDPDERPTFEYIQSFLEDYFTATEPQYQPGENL
Summary of the method: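 ADP-Glo luminescence measured inhibition of human recombinant Yes (a.a. 2–543) phosphorylation activity. In the first screen, each compound ran in 4 wells and inhibition rates were averaged. The second screen retested hits as compounds dissolved from fresh powder.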

Row | SMILES | First screening IR (inhibition rate) [%]
1 | Cn1c(O)c(N=NC(=O)c2ccc(COc3ccccc3-c3ccccc3)cc2)c2ccccc21 [Compound Z44853786] | 9
2 | COc1ccc(CSCc2nc(N)nc(Nc3ccccc3C)n2)cc1F [Compound Z45342622] | 6
3 | Cc1ccccc1Nc1nc(N)nc(CSCC(=O)N2CCCCC2)n1 [Compound Z45354084] | 18
4 | Cc1ccccc1Nc1nc(N)nc(CSc2ccc(C(F)(F)F)cn2)n1 [Compound Z45354574] | 12
5 | O=[N+]([O-])c1ccc2nc(CSc3ccc(C(F)(F)F)cn3)[nH]c2c1 [Compound Z45358726] | 7
6 | CCc1ccccc1Nc1nc(N)nc(CSCC(=O)c2cc(C)n(C)c2C)n1 [Compound Z45360560] | -2
7 | Cc1ccc(S(=O)(=O)N2CCN(S(=O)(=O)c3ccc(C)c(C)c3)CC2)cc1C [Compound Z45415135] | -5
8 | NS(=O)(=O)c1ccc(S(=O)(=O)N2CCCC2)cc1 [Compound Z45415601] | -6
9 | CCN(CC)S(=O)(=O)c1ccc(S(N)(=O)=O)cc1 [Compound Z45415602] | 1
10 | CN(C)S(=O)(=O)c1ccc(S(N)(=O)=O)cc1 [Compound Z45415603] | 11
11 | CCCN(S(=O)(=O)c1ccc(C)cc1)S(=O)(=O)c1ccc(Cl)cc1 [Compound Z45422005] | 3
12 | CCCN(S(=O)(=O)c1ccc(Cl)cc1)S(=O)(=O)c1ccc(C)cc1C [Compound Z45422032] | 5
13 | CCN(C1CCS(=O)(=O)C1)S(=O)(=O)c1ccc(Br)cc1 (centres unmarked) [Compound Z45467079] | 4
14 | CCN(C1CCS(=O)(=O)C1)S(=O)(=O)c1ccc(C)cc1 (centres unmarked) [Compound Z45467092] | 9
15 | CCN(C1CCS(=O)(=O)C1)S(=O)(=O)c1ccc(Cl)c(Cl)c1 (centres unmarked) [Compound Z45467101] | 12
16 | CCN(C1CCS(=O)(=O)C1)S(=O)(=O)c1ccc(C)c(C)c1 (centres unmarked) [Compound Z45467115] | 10
17 | CCN(C1CCS(=O)(=O)C1)S(=O)(=O)c1ccc(Br)cc1Cl (centres unmarked) [Compound Z45467139] | 2

Row | SMILES | First screening IR (inhibition rate) [%]
18 | CCN(C1CCS(=O)(=O)C1)S(=O)(=O)c1c(C)c(C)c(C)c(C)c1C (centres unmarked) [Compound Z45467174] | 8
19 | CCN(C1CCS(=O)(=O)C1)S(=O)(=O)c1c(C)noc1C (centres unmarked) [Compound Z45467189] | -5
20 | COc1ccc(NC(C)=O)cc1S(=O)(=O)N(C)Cc1cccc(OC)c1OC [Compound Z45476409] | 2
21 | CC(C)CN(C1CCS(=O)(=O)C1)S(=O)(=O)c1ccc(Cl)cc1 (centres unmarked) [Compound Z45480638] | 1
22 | CC(C)CN(C1CCS(=O)(=O)C1)S(=O)(=O)c1ccc(Cl)c(Cl)c1 (centres unmarked) [Compound Z45480661] | 1
23 | CCCN(C1CCS(=O)(=O)C1)S(=O)(=O)c1ccccc1Cl (centres unmarked) [Compound Z45480819] | -1
24 | CC(NS(=O)(=O)c1ccc(C(C)(C)C)cc1)c1ccc(-n2ccnc2)cc1 (centres unmarked) [Compound Z45488256] | 12
25 | CC(C)c1ccc(S(=O)(=O)NC(C)c2ccc(-n3ccnc3)cc2)cc1 (centres unmarked) [Compound Z45488257] | -8
26 | O=S(=O)(c1c(Cl)cccc1Cl)N1CCN(Cc2nc3ccccc3s2)CC1 [Compound Z45503858] | 3
27 | CCN(CC)S(=O)(=O)c1ccc(S(=O)(=O)N(C)C)cc1 [Compound Z45516173] | 3
28 | CCN(CC)S(=O)(=O)c1ccc(S(=O)(=O)N(C)C(C)C)cc1 [Compound Z45539789] | 11
29 | Cc1ccc(S(=O)(=O)N(C)S(=O)(=O)c2ccc(C#N)cc2)cc1 [Compound Z45549760] | 3
30 | Cc1n[nH]c(C)c1S(=O)(=O)Nc1cccc(/C=C/c2ccccn2)c1 [Compound Z45649828] | 36
31 | O=S(=O)(Nc1ccc(N2CCOCC2)cc1)c1ccc(Cl)c(C(F)(F)F)c1 [Compound Z45660528] | -2
32 | CC1CCCC(NC(=S)Nc2cccc(S(=O)(=O)N(C)C)c2)C1C (centres unmarked) [Compound Z45768220] | 27
33 | CCN(CC)S(=O)(=O)c1ccc(OC)c(NC(=S)NCc2ccccc2)c1 [Compound Z45779271] | 13

Continued, values first:

Row | First screening IR (inhibition rate) [%] | SMILES
34 | -6 | CCCCc1ccc(NC(=S)N2CC3(C)CC2CC(C)(C)C3)cc1 (centres unmarked) [Compound Z45795780]
35 | 0 | O=c1c2ccc(C(F)(F)F)cc2nc2n1CC/C2=C/c1cccnc1 [Compound Z45931417]
36 | -14 | O=C(O)c1c2c(nc3ccccc13)/C(=C\c1ccccc1)CCC2 [Compound Z46035726]
37 | 5 | CC(=O)Nc1ccc(/C=C2/CCCc3c2nc2ccccc2c3C(=O)O)cc1 [Compound Z46035730]
38 | 9 | COc1ccc(/C=C2/CCCc3c2nc2ccccc2c3C(=O)O)cc1 [Compound Z46035754]
39 | 0 | O=C(O)c1c2c(nc3ccccc13)/C(=C\c1ccc(Cl)c(Cl)c1)CCC2 [Compound Z46035759]
40 | 1 | O=C(O)c1ccc(/C=C2/CCCc3c2nc2ccccc2c3C(=O)O)cc1 [Compound Z46035770]
41 | 11 | COc1cccc(/C=C2\CCCc3c2nc2ccccc2c3C(=O)O)c1 [Compound Z46035772]
42 | 51 | CCOc1cc(/C=C2/CCCc3c2nc2ccccc2c3C(=O)O)ccc1OC [Compound Z46035916]
43 | -2 | O=C(O)c1c2c(nc3ccccc13)/C(=C\c1ccc(O)c(Br)c1)CCC2 [Compound Z46036098]
44 | 19 | O=C(/C=C/c1cn(-c2ccccc2)nc1-c1cccnc1)c1ccc(Cl)c([N+](=O)[O-])c1 [Compound Z46041361]
45 | 15 | Cc1c(Nc2ccc(/C=C3/C(=O)Nc4ccc(Cl)cc43)cc2)c(=O)n(-c2ccccc2)n1C [Compound Z46051719]
46 | 24 | O=C1Nc2ccccc2/C1=C\c1c(Cl)nc2sccn12 [Compound Z46060818]
47 | 11 | C(=C\c1nc2cc(-c3ccccc3)ccc2o1)/c1cccnc1 [Compound Z46080472]
48 | -4 | COc1cc(/C=C2/CC(C)Cc3c2nc2ccccc2c3C(=O)O)ccc1O (centres unmarked) [Compound Z46107807]
49 | 10 | CC1C/C(=C/c2ccccc2[N+](=O)[O-])c2nc3ccccc3c(C(=O)O)c2C1 (centres unmarked) [Compound Z46107814]
50 | -10 | COc1ccc(/C=C2/CC(C)Cc3c2nc2ccccc2c3C(=O)O)c(OC)c1 (centres unmarked) [Compound Z46107821]
51 | -1 | COc1ccccc1/C=C1\CC(C)Cc2c1nc1ccccc1c2C(=O)O (centres unmarked) [Compound Z46107852]

Row | First screening IR (inhibition rate) [%] | SMILES
52 | 11 | CC1C/C(=C/c2ccc(Cl)c([N+](=O)[O-])c2)c2nc3ccccc3c(C(=O)O)c2C1 (centres unmarked) [Compound Z46107857]
53 | -3 | Cc1ccccc1/C=C1/CC(C)Cc2c1nc1ccccc1c2C(=O)O (centres unmarked) [Compound Z46107859]
54 | -2 | CC1C/C(=C/c2ccc(C#N)cc2)c2nc3ccccc3c(C(=O)O)c2C1 (centres unmarked) [Compound Z46107862]
55 | 11 | CNc1ccc(/C=C2/CC(C)Cc3c2nc2ccccc2c3C(=O)O)cc1[N+](=O)[O-] (centres unmarked) [Compound Z46108034]
56 | 3 | COc1cc(/C=C2/CC(C)Cc3c2nc2ccccc2c3C(=O)O)cc(Cl)c1O (centres unmarked) [Compound Z46108144]
57 | 8 | CC(C)(C)C1C/C(=C/c2ccc3c(c2)OCO3)c2nc3ccccc3c(C(=O)O)c2C1 (centres unmarked) [Compound Z46108733]
58 | 26 | CC(=O)Nc1ccc(/C=C2/CC(C(C)(C)C)Cc3c2nc2ccccc2c3C(=O)O)cc1 (centres unmarked) [Compound Z46108738]
59 | 15 | COC(=O)c1ccc(COc2ccc(/C=C3/CC(C(C)(C)C)Cc4c3nc3ccccc3c4C(=O)O)cc2OC)cc1 (centres unmarked) [Compound Z46108841]
60 | -9 | CN1C/C(=C/c2ccc3c(c2)OCO3)c2nc3ccccc3c(C(=O)O)c2C1 [Compound Z46114673]
61 | -2 | CN1C/C(=C/c2ccc(F)cc2)c2nc3ccccc3c(C(=O)O)c2C1 [Compound Z46114693]
62 | -9 | CN1C/C(=C/c2cccc(Br)c2)c2nc3ccccc3c(C(=O)O)c2C1 [Compound Z46114695]
63 | -7 | COc1ccc(/C=C2/CN(C)Cc3c2nc2ccccc2c3C(=O)O)cc1 [Compound Z46114702]
64 | 0 | CCc1ccc(/C=C2/CN(C)Cc3c2nc2ccccc2c3C(=O)O)cc1 [Compound Z46114754]
65 | 13 | CCC(C)(C)C1C/C(=C/c2ccc(C(C)C)cc2)c2nc3ccccc3c(C(=O)O)c2C1 (centres unmarked) [Compound Z46116606]
66 | 5 | CCC(C)(C)C1C/C(=C/c2cc(Br)c(O)c(OC)c2)c2nc3ccccc3c(C(=O)O)c2C1 (centres unmarked) [Compound Z46116622]
67 | 45 | CCC(C)(C)C1C/C(=C\c2c(Cl)cccc2Cl)c2nc3ccccc3c(C(=O)O)c2C1 (centres unmarked) [Compound Z46116634]
68 | 23 | CCC(C)(C)C1C/C(=C/c2ccccc2Br)c2nc3ccccc3c(C(=O)O)c2C1 (centres unmarked) [Compound Z46116650]
69 | 11 | CCC(C)(C)C1C/C(=C/c2ccc(Sc3nncn3C)c([N+](=O)[O-])c2)c2nc3ccccc3c(C(=O)O)c2C1 (centres unmarked) [Compound Z46116775]

same assay, conditions: second screening, dissolved from fresh powder; n = 4; 10 μmol L−1 compound

Row | Second screening IR (inhibition rate) [%] | SMILES
70 | 0 | Cc1n[nH]c(C)c1S(=O)(=O)Nc1cccc(/C=C/c2ccccn2)c1 [Compound Z45649828]
71 | -8 | CCOc1cc(/C=C2/CCCc3c2nc2ccccc2c3C(=O)O)ccc1OC [Compound Z46035916]
